Test results taken from patent US7241791B2, “Substituted 4-(indazol-3-yl)phenols” (Wyeth, priority 2002, dated 2007).
Read-outs that look alike come from different tables or passages of the source.

Legend:
human ERα [1] = molecular target: T1, human ERα (Homo sapiens, UniProt P03372); assay: NF-κB luciferase reporter (ER/NF-KB-luc) in Ad5-wt-hERα infected HAECT-1 cells; details: for IC50: ER/NF-KB-luc IC50, Ad5-wt-ER infected HAECT-1 cells, IL-1β
T1 sequence (P03372 1-595): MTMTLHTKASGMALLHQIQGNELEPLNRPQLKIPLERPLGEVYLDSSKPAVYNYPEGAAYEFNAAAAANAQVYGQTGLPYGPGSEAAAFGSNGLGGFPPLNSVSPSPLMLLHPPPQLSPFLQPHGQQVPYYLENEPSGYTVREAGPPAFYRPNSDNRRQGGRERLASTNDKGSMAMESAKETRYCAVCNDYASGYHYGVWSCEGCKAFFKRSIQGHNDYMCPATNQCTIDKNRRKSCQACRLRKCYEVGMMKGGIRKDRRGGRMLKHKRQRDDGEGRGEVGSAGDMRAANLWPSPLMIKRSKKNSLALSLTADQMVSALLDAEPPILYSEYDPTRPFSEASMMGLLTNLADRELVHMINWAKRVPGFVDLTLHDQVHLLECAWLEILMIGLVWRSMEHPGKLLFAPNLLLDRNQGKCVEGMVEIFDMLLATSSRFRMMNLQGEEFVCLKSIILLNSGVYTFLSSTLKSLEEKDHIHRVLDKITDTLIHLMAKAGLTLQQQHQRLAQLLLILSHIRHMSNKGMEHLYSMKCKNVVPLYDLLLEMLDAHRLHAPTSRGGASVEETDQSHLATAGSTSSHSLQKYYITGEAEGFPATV

human ERα [2] = molecular target: T1, human ERα; assay: Creatine kinase expression (ER/CK) in Ad5-wt-hERα infected HAECT-1 cells; details: for ER/CK % E2: efficacy relative to the maximal stimulation observed with E2
[3] = HAECT1, read-out: ER/NF-KB-luc % E2, efficacy relative to the maximal inhibition observed with E2
[4] = HAECT1, read-out: ER/NF-KB-luc % E2

Row | IC50 (human ERα [1]) | Emax (human ERα [1]; [3]) | EC50 (human ERα [2]) | ER/CK % E2 (human ERα [2]) | Compound | EC50 (human ERα [2]; read-out: ER/CK EC50, Ad5-wt-ER infected HAECT-1 cells) | Emax (human ERα [1]; [4])
1 | 751 nM | 90% | 2450 nM | 31 % E2 | OCCn1nc(-c2ccc(O)cc2)c2cccc(F)c21 [Example 188, 4-[7-fluoro-1-(2-hydroxyethyl)-1H-indazol-3-yl]phenol] |  | 
2 | 435 nM | 86% | 1480 nM | 58 % E2 | Cn1nc(-c2ccc(O)cc2)c2cccc(F)c21 [Example 200, 4-(7-fluoro-1-methyl-1H-indazol-3-yl)phenol] |  | 
3 | 11 nM | 82% | 136 nM | 28 % E2 | Oc1ccc(-c2nn(C3CCCC3)c3c(-c4ccccc4)cccc23)cc1 [Example 246, 4-(1-cyclopentyl-7-phenyl-1H-indazol-3-yl)phenol] |  | 
4 | 62 nM | 97% | 205 nM | 54 % E2 | Oc1ccc(-c2n[nH]c3ccccc23)cc1 [Example 130, 4-(H-indazol-3-yl)phenol] |  | 
5 | 515 nM | 106% | 1120 nM | 59 % E2 | OCCn1nc(-c2ccc(O)cc2)c2ccccc21 [Example 158, 4-[1-(2-hydroxyethyl)-1H-indazol-3-yl]phenol] |  | 
6 | 138 nM | 79% |  |  | CCCn1nc(-c2ccc(O)cc2)c2cccc(-c3ccc(O)cc3)c21 [Example 103, 4-[3-(4-hydroxyphenyl)-1-propyl-1H-indazole-7-yl]phenol] |  | 
7 | 59 nM | 59% |  |  | Cc1cc(O)ccc1-c1nn(C(C)C)c2c(-c3ccc(CO)cc3)cccc12 [Example 249, 4-{7-[14-(hydroxymethyl)phenyl]-1-isopropyl-1H-indazol-3-yl}-3-methylphenol] |  | 
8 | 142 nM | 83% |  |  | Oc1ccc(-c2nn(C3CCCC3)c3c(-c4ccccc4Cl)cccc23)cc1 [Example 243, 4-[7-(2-chlorophenyl)-1-cyclopentyl-1H-indazol-3-yl]phenol] |  | 
9 | 644 nM | 77% |  |  | CCCCC/C=C/c1cccc2c(-c3ccc(O)cc3C)nn(C3CCCC3)c12 [Example 258, 4-{1-cyclopentyl-7-[(E)-hept-1-enyl]-1H-indazol-3-yl}-3-methyl-phenol] |  | 
10 | 24 nM | 57% |  |  | CCc1ccc(-c2cccc3c(-c4ccc(O)cc4C)nn(C(C)C)c23)cc1 [Example 251, 4-[7-(4-ethylphenyl)-1-isopropyl-1H-indazol-3-yl]-3-methylphenol] |  | 
11 | 56 nM | 59% |  |  | Cc1cc(O)ccc1-c1nn(C(C)C)c2c(-c3ccc(-c4ccccc4)cc3)cccc12 [Example 252, 4-[7-(1,1′-biphenyl-4-yl)-1-isopropyl-1H-indazol-3-yl]-3-methyl-phenol] |  | 
12 | 28 nM | 53% |  |  | CCc1ccc(-c2cccc3c(-c4ccc(O)cc4C)nn(C4CCCC4)c23)cc1 [Example 260, 4-[1-cyclopentyl-7-(4-ethylphenyl)-1H-indazol-3-yl]-3-methyl-phenol] |  | 
13 | 636 nM | 120% |  |  | Oc1ccc(-c2nn(-c3ccc(Br)cc3)c3c(C(F)(F)F)cccc23)cc1 [Example 31, 4-[1-(4-bromophenyl)-7-(trifluoromethyl)-1H-indazol-3-yl]phenol] |  | 
14 | 65 nM | 91% |  |  | Oc1ccc(-c2nn(C3CCCCC3)c3c(C(F)(F)F)cccc23)cc1 [Example 32, 4-[1-cyclohexyl-7-(trifluoromethyl)-1H-indazol-3-yl]phenol] |  | 
15 |  | 65% |  |  | Oc1ccc(-c2nn(Cc3ccccc3)c3c(C(F)(F)F)cccc23)cc1 [Example 147, 4-[1-benzyl-7-(trifluoromethyl)-1H-indazol-3-yl]phenol] |  | 
16 | 8 nM | 75% |  |  | Cc1cc(O)ccc1-c1nn(C2CCCC2)c2c(-c3ccccc3Cl)cccc12 [Example 262, 4-[7-(2-chlorophenyl)-1-cyclopentyl-1H-indazol-3-yl]-3-methyl-phenol] |  | 

The next lines start with the compound.

Row | Compound | IC50 (human ERα [1]) | Emax (human ERα [1]; [3]) | EC50 (human ERα [2]) | ER/CK % E2 (human ERα [2]) | EC50 (human ERα [2]; read-out: ER/CK EC50, Ad5-wt-ER infected HAECT-1 cells) | Emax (human ERα [1]; [4])
17 | Cn1nc(-c2ccc(O)cc2)c2cc(C(F)(F)F)ccc21 [Example 171, 4-[1-methyl-5-(trifluoromethyl)-1H-indazol-3-yl]phenol] | 582 nM | 95% | 2380 nM | 42 % E2 |  | 
18 | CC(C)n1nc2c(Cl)cccc2c1-c1ccc(O)cc1 [Example 46, 4-(7-chloro-2-isopropyl-2H-indazol-3-yl)phenol] |  | 102% |  | 67 % E2 |  | 
19 | 4-[1-isopropyl-7-(2-methylphenyl)-1H-indazol-3-yl]-3-methyl-phenol [Example 256] |  |  |  |  | 292 nM | 
20 | CC(C)n1nc(-c2ccc(O)cc2O)c2cccc(C(F)(F)F)c21 [Example 65, 4-[1-isopropyl-7-(trifluoromethyl)-1H-indazol-3-yl]benzene-1,3-diol] | 41 nM | 86% | 218 nM | 42 % E2 |  | 
21 | OCCn1nc(-c2ccc(O)cc2O)c2cc(F)ccc21 [Example 192, 4-[5-fluoro-1-(2-hydroxyethyl)-1H-indazol-3-yl]benzene-1,3-diol] | 371 nM | 87% | 608 nM | 51 % E2 |  | 
22 | CS(=O)(=O)c1ccc(-n2nc(-c3ccc(O)cc3O)c3ccc(O)cc32)cc1 [Example 28, 4-{6-hydroxy-1-[4-(methylsulfonyl)phenyl]-1H-indazol-3-yl}benzene-1,3-diol] | 551 nM | 86% |  |  |  | 
23 | CCCn1nc2c(F)cccc2c1-c1ccc(O)cc1C [Example 92, 4-(7-fluoro-2-propyl-2H-indazole-3-yl)-3-methylphenol] | 228 nM | 87% |  |  |  | 
24 | Oc1ccc(-c2nn(-c3cccc(F)c3)c3cc(O)ccc23)c(O)c1 [Example 21, 4-[1-(3-fluorophenyl)-6-hydroxy-1H-indazol-3-yl]benzene-1,3-diol] |  |  |  |  |  | 73%
25 | CCCCn1nc(-c2ccc(O)cc2)c2cccc(C(F)(F)F)c21 [Example 219, 4-[1-butyl-7-(trifluoromethyl)-1H-indazol-3-yl]phenol] | 369 nM | 104% |  |  |  | 
26 | CCCn1nc(-c2ccc(O)cc2O)c2ccc(O)cc21 [Example 1, 4-(6-hydroxy-1-propyl-1H-indazol-3-yl)benzene-1,3-diol] |  | 74% |  |  |  | 
27 | CCCn1nc(-c2ccc(O)cc2)c2cccc(C)c21 [Example 37, 4-(7-methyl-1-propyl-1H-indazol-3-yl)phenol] |  |  |  |  |  | 95%
28 | Oc1ccc(-c2nn(-c3ccc(F)c(Cl)c3)c3cc(O)ccc23)c(O)c1 [Example 24, 4-[1-(3-chloro-4-fluorophenyl)-6-hydroxy-1H-indazol-3-yl]benzene-1,3-diol] | 63 nM | 83% |  |  |  | 
29 | Cc1cc(O)ccc1-c1nn(C(C)C)c2c(-c3ccco3)cccc12 [Example 254, 4-[7-(2-furyl)-1-isopropyl-1H-indazol-3-yl]-3-methylphenol] | 27 nM | 56% |  |  |  | 
30 | CC(C)Cn1nc(-c2ccc(O)cc2O)c2cccc(C(F)(F)F)c21 [Example 68, 4-[1-isobutyl-7-(trifluoromethyl)-1H-indazol-3-yl]benzene-1,3-diol] | 56 nM | 74% |  |  |  | 
31 | CCCCCn1nc2c(Cl)cccc2c1-c1ccc(O)cc1 [Example 42, 4-[7-chloro-2-pentyl-2H-indazol-3-yl]phenol] | 190 nM | 102% |  |  |  | 
32 | Cc1cc(O)ccc1-c1nn(C(C)C)c2c(-c3ccccc3Cl)cccc12 [Example 253, 4-[7-(2-chlorophenyl)-1-isopropyl-1H-indazol-3-yl]-3-methyl-phenol] | 21 nM | 62% |  |  |  | 
33 | Cc1cc(O)ccc1-c1nn(C(C)C)c2c(-c3ccccc3C)cccc12 [Example 255, 4-[1-isopropyl-7-(2-methylphenyl)-1H-indazol-3-yl]-3-methyl-phenol] | 4 nM | 89% |  |  |  | 
34 | CCCn1nc2c(F)cccc2c1-c1ccc(O)cc1 [Example 54, 4-(7-fluoro-2-propyl-2H-indazol-3-yl)phenol] | 393 nM | 77% |  |  |  | 
35 | Oc1ccc(-c2nn(Cc3ccccc3)c3c(C(F)(F)F)cccc23)c(O)c1 [Example 143, 4-[1-benzyl-7-(trifluoromethyl)-1H-indazol-3-yl]benzene-1,3-diol] | 310 nM | 65% |  |  |  | 
36 | Oc1ccc(-c2nn(-c3cccc(Cl)c3)c3cc(O)ccc23)c(O)c1 [Example 6, 4-[1-(3-chlorophenyl)-6-hydroxy-1H-indazol-3-yl]benzene-1,3-diol] |  | 85% |  |  |  | 
37 | Oc1ccc(-c2nn(CC3CCCCC3)c3c(C(F)(F)F)cccc23)c(O)c1 [Example 67, 4-[1-(cyclohexylmethyl)-7-(trifluoromethyl)-1H-indazol-3-yl]benzene-1,3-diol] | 48 nM | 65% |  |  |  | 
38 | CC(C)n1nc(-c2ccc(O)cc2O)c2cccc(Cl)c21 [Example 80, 4-(7-chloro-1-isopropyl-1H-indazol-3-yl)benzene-1,3-diol] | 18 nM | 48% |  |  |  | 
